This passage reports PP6C protein level and gamma-globin protein levels results from patent US20230045199A1, “COMPOSITIONS AND METHODS FOR HEMOGLOBIN PRODUCTION” (THE CHILDREN'S HOSPITAL OF PHILADELPHIA, priority 2019, published 2023).

Like-named read-outs stand apart in the source and are kept apart here.

This data set relates to PP6C. Put plainly: Western blot of PP6C and gamma-globin in primary human cells after RNP electroporation of SpCas9 with guide RNA. Type of data set: cell-based. An excerpt:
FIGS. 2A-2D provide data regarding validation of PP6C as a regulator of HbF in human primary cells utilizing RNP-based electroporation of SpCas9 with guide RNA targeting PP6C. FIG. 2A depicts protein levels by Western blot of PP6C and gamma-globin with 6 independent guide RNA targeting PP6C or a non-targeting guide RNA. […] These specific guide RNAs were utilized for further primary human cell testing. FIG. 2B provides a graph of gamma globin mRNA levels in four independent biological replicates of human primary cells treated with PP6C sgRNA #1 or #3; a guide RNA targeting the BCL11A +58 enhancer (positive control), or a non-targeting guide RNA (negative control). FIG. 2C provides representative flow cytometric plots of HbF staining (top) and compiled F-cell flow cytometric staining in four independent biological replicates (bottom) in cells treated with PP6C sgRNA, BCL11A +58 sgRNA, or non-targeting sgRNA. […] FIG. 2D are representative cation-exchange high performance liquid chromatography (HPLC) tracings (top) and complied HPLC HbF+ quantitation in two independent biological replicates (bottom) in cells treated with PP6C sgRNA, BCL11A +58 sgRNA, or non-targeting sgRNA. HbF elutes as a distinct peak (grey box), followed by adult hemoglobin (HbA). Percentages are quantified as HbF percentage of total globins (HbF+HbA).
Cells were transduced with one of the six guide RNAs targeting PP6C, a guide RNA targeting BCL11A exon 2 (positive control; BCL11A is a repressor of HbF expression), or non-targeting guide RNA or untreated control (negative controls).

As to “PP6C sgRNA1: CRISPR sgRNA targeting PP6C, sequence GCACATCAACTAGTGCACGA (SEQ ID NO: 5) (listed as DNA, chemistry not given here)”, the PP6C protein level entry is recorded as “significantly depleted” and the gamma-globin protein levels result is “significantly increased”. In addition, the gamma-globin protein levels entry (listed as PP6C guide RNA #1) is reported as “significant induction”.

As to “PP6C sgRNA3: CRISPR sgRNA targeting PP6C, sequence GGAACTGCCCGGAATAACTT (SEQ ID NO: 7) (listed as DNA, chemistry not given here)”, the PP6C protein level entry is recorded as “significantly depleted” and the gamma-globin protein levels result is “significantly increased”. For the same substance, under “listed as PP6C guide RNA #3”, the gamma-globin protein levels entry is “significant induction”.

With “PP6C sgRNA4: CRISPR sgRNA targeting PP6C, sequence TCCTCGGGGACTGATAGCCC (SEQ ID NO: 8) (listed as DNA, chemistry not given here)”, the PP6C protein level entry is reported as “significantly depleted” and the gamma-globin protein levels entry was “significant induction”.
